Laboratory results: patent EP0717995A2, “Cell degeneration suppressing and organ toxicity reducing agent” (SANWA KAGAKU KENKYUSHO CO., LTD., priority 1994, dated 1996)
Where two headings read alike, the source gives them in different places.

Tests used:
Type in all cases: in vivo
[1] = system: rats of 10 months of age
Method: Using rats of 10 months of age (8 to 9 animals per 1 group), 0.5 g/kg of carbon tetrachloride was orally administered as a hepatic toxicity substance to increase the serum GOT level to 500 KARMEN units or more after 24 hours of the administration, simultaneously carrying out oral administration of (1) indomethacin (5 mg/kg) or (2) tetracycline (10 mg/kg) as a pharmaceutical drug having hepatic toxicity, 3 times on every other day.
In the inventive substance-treated group, the sulfatide composition described in Composition Production Example (2 mg/kg as sulfatide) was orally administered simultaneously with the pharmaceutical drug having hepatic toxicity.
The GOT enzyme released in blood caused by hepatocyte destruction was measured 12 hours after completion of the drug administration, and the liver was extracted to carry out histological tissue examination.

[2] = system: spontaneous nephritis in MRL/1 mice; assay: Preventive action against spontaneous nephritis in MRL/1 mice (urinary protein, blood urea nitrogen); settings: male MRL/1 mice, positive (urinary protein 100 mg/dl or more) / survived animals
Method: Protective effect of the pharmaceutical preparation of the present invention against spontaneous nephritis in MRL/1 mice was examined (protective effect on functional reduction due to aging).
Each test sample of 1 to 10 mg/kg mixed with feed was orally administered to male MRL/1 mice of 6 weeks of age (15 animals per 1 group) twice a week for 12 weeks. During the administration period, urinary protein was measured once a week to examine positive ratio in each week of age by defining an individual showing a urinary protein level of 100 mg/dl or more as positive. Also, blood urea nitrogen was measured on the next day of the final administration to carry out serologic biochemical evaluation of the action of the compound of the present invention against nephritis, together with histopathological evaluation.

[3] = system: herpes simplex type 1 virus (HSV-1); assay: Interferon enhancer effect in mice infected with herpes simplex type 1 virus (survival); settings: BALB/c mice, HSV-1 MIYAMA strain 10 LD50; oral sulfatide for 5 days together with 4 × 10⁴ IU/kg IFN-α i.p.
Method: Synergetic effect of the simultaneous use of IFN-α and sulfatide on mice infected with herpes simplex type 1 virus (HSV-1)
A total of 10 BALB/c mice were used in one group and infected with a 10 LD₅₀ equivalent dose of HSV-1 MIYAMA strain. Intraperitoneal administration of IFN-α was carried out on the day before the inoculation of HSV-1 and just after the inoculation, and oral administration of sulfatide was carried out continuously for 5 days starting on the day before the HSV-1 inoculation until the fourth day after the inoculation. Conditions of the animals were observed until 20 days after the HSV-1 infection to calculate survival rate.

[4] = system: mouse hepatitis virus (MHV); assay: Interferon enhancer effect in mice infected with mouse hepatitis virus (survival); settings: ICR mice, MHV Friend strain 2 LD50 i.p.; oral sulfatide used simultaneously with IFN-α i.p., once a day for 3 days
Method: Synergetic effect of the simultaneous use of interferon-α (IFN-α) and the substance of the present invention, sulfatide, on mice infected with mouse hepatitis virus (MHV)
A total of 10 ICR mice were used in one group, and intraperitoneal administration of mouse IFN-α and oral administration of […] were carried out once a day for 3 days. Just before the administration on the second day, MHV Friend strain was inoculated into the abdominal cavity in a 2 LD₅₀ equivalent dose, and conditions of the animals were observed until 14 days thereafter to calculate survival ratio.

[5] = dose 2 mg/kg oral in feed twice a week from 6 weeks of age
[6] = dose 1 mg/kg oral in feed twice a week from 6 weeks of age

Compound | Changes in positive urinary protein, Weeks of Age 16 [2, 5] | Changes in positive urinary protein, Weeks of Age 17 [2, 5] | Changes in positive urinary protein, Weeks of Age 18 [2, 5] | also measured
COc1ccc2c(c1)c(CC(=O)O)c(C)n2C(=O)c1ccc(Cl)cc1 [indomethacin, reference compound] |  |  |  | Changes in GOT, 12 hrs after Completion of Drug Administration ([1]; group a): carbon tetrachloride + indomethacin (5 mg/kg oral, 3 times on every other day), no sulfatide): 1054 ± 31.2 KARMEN units
CCCCCCCCCCCCCCCCOCC(COC1OC(CO)C(O)C(OS(=O)(=O)O)C1O)OC(=O)CCCCCCCCCCCCCCC [seminolipid, 3-O-(β-D-Galactopyranosyl 3-sulfate)-2-O-hexadecanoyl-1-O-hexadecyl-L-glycerol] | 3/15 | 4/15 | 8/15 | 
III³ II³ SO₃ Ge3Cer [SB2] | 4/15 | 5/15 | 10/15 | 
II³ SO₃ Lac Cer [SM3] | 2/15 | 4/15 | 8/15 | 
IV³ SO₃ II³ SO₃ Ge4Cer [SB1a] | 5/15 | 7/15 | 10/15 | 
sialyl Lewis A |  |  |  | Changes in positive urinary protein, Weeks of Age 16 [2, 6]: 3/15; Changes in positive urinary protein, Weeks of Age 17 [2, 6]: 5/14; Changes in positive urinary protein, Weeks of Age 18 [2, 6]: 9/14
sialyl Lewis X |  |  |  | Changes in positive urinary protein, Weeks of Age 16 [2, 6]: 3/15; Changes in positive urinary protein, Weeks of Age 17 [2, 6]: 4/15; Changes in positive urinary protein, Weeks of Age 18 [2, 6]: 8/15
sulfatide | 2/15 | 5/15 | 9/15 | average survival days [3]: significantly effective in dose-dependently prolonging average survival days; effect of IFN-α on average survival days [4]: further increased significantly in a dose dependent fashion; Changes in GOT, 12 hrs after Completion of Drug Administration ([1]; group c): carbon tetrachloride + indomethacin (5 mg/kg) + sulfatide composition (2 mg/kg as sulfatide, oral)): 469 ± 61.5 KARMEN units; Changes in GOT, 12 hrs after Completion of Drug Administration ([1]; group d): carbon tetrachloride + tetracycline (10 mg/kg) + sulfatide composition (2 mg/kg as sulfatide, oral)): 439 ± 30.5 KARMEN units; Changes in GOT, 12 hrs after Completion of Drug Administration ([1]; group e): carbon tetrachloride + sulfatide composition (2 mg/kg as sulfatide, oral)): 128 ± 48.7 KARMEN units
